From paper PMC5773487, “Harnessing insulin- and leptin-induced oxidation of PTP1B for therapeutic development” (Nature Communications, 2018)
Values joined by “and” are separate entries in the source; they are usually repeats but may differ in a detail not shown here. Identical values can stand only once. “Also recorded” adds a separate entry of the source. Like-named read-outs stand apart in the source and are kept apart here.

T1: K36A/K41A PTP1B-OX mutant (Homo sapiens, UniProt P18031, K36A/K41A)
T1 construct: PTP1B (1–321) and TCPTP (1–317) cloned in pET21b vector were used as templates; 6xHis (C); made in house; host or cells: E. coli BL21 (DE3)-RIL
T1 sequence (P18031 1-321 K36A/K41A): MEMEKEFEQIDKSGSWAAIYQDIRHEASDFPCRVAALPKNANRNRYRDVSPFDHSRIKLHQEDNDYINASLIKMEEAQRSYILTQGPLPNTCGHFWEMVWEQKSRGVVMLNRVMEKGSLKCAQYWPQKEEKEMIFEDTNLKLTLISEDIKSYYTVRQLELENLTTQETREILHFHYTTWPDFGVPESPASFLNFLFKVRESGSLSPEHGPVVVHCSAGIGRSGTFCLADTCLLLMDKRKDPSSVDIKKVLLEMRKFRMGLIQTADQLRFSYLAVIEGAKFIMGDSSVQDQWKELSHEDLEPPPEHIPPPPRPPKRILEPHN

T2: PTP1B-CASA (Homo sapiens, UniProt P18031, C215A/S216A)
T2 construct: PTP1B (1–321) and TCPTP (1–317) cloned in pET21b vector were used as templates; 6xHis (C); made in house; host or cells: E. coli BL21 (DE3)-RIL
T2 sequence (P18031 1-321 C215A/S216A limits assumed): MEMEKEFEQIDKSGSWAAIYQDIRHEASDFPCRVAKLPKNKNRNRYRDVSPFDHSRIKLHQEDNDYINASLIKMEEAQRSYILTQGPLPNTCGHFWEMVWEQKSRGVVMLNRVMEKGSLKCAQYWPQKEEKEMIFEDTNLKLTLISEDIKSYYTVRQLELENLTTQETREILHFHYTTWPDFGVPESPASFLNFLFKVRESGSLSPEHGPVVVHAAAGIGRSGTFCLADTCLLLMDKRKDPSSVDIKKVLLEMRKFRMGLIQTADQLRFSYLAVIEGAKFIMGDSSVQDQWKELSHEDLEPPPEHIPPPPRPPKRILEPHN

T3: PTP1B-CASA-mut2 (Homo sapiens, UniProt P18031, C215A/K39E/K41R/L37F/S216A)
T3 construct: PTP1B (1–321) and TCPTP (1–317) cloned in pET21b vector were used as templates; made in house; host or cells: E. coli BL21 (DE3)-RIL
T3 sequence (P18031 1-321 L37F/K39E/K41R/C215A/S216A limits assumed): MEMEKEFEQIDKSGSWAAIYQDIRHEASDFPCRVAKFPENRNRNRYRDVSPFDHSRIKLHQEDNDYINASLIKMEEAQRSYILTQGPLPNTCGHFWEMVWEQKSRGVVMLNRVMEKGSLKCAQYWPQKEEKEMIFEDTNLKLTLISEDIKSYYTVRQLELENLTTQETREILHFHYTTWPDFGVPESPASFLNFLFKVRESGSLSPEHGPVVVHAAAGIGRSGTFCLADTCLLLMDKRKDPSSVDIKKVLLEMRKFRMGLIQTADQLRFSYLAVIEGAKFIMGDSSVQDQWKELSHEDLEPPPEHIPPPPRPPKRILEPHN


What was measured:
[1] = molecular target: T1, K36A/K41A PTP1B-OX mutant; experiment: reduction and reactivation of oxidized PTP1B-K36A/K41A, DiFMUP, TCEP; format: biochemical
Protocol: Fig. 5 Chelerythrine and scFv45 inhibit reactivation of PTP1B-OX by a similar mechanism. a Molecular modeling of chelerythrine binding to PTP1B-OX, with critical residues for the interaction highlighted on the right. b Oxidized PTP1B-wt (circle), PTP1B-K36A/K41A (square) were incubated with increasing concentrations of chelerythrine (0–10 mM) and phosphatase activity was measured using DiFMUP as substrate in the presence of the reducing agent TCEP (5 mM). c Oxidized PTP1B-wt (circle), PTP1B-mut1 (square), or PTP1B-mut2 (diamond) were incubated with increasing concentrations of chelerythrine (0–10 mM) and phosphatase activity was measured using DiFMUP as substrate in the presence of the reducing agent TCEP (5 mM). Individual data points represent the mean obtained from three separate experiments (n = 3; b, c). d Overlay of crystal structures of the reduced (blue) and oxidized (gray) form of PTP1B.

[2] = molecular target: T2, PTP1B-CASA; experiment: isothermal titration calorimetry; format: binding; details: 25°C
Protocol: (§1) The studies were performed using a VP-ITC system from GE Healthcare. All titrations were performed at 25°C in de-gassed buffer (50 mM HEPES pH 7.0, 100 mM NaCl, 2 % DMSO, and 1 mM TCEP). The protein concentrations of PTP1B-CASA and PTP1B-CASA-mut2 were each 50 μM. Protein samples used in ITC were dialyzed completely against the buffer. Inhibitor (10 mM) in DMSO was diluted to make a stock solution of 0.2 mM in de-gassed buffer, which was then used as titrant in the syringe. The instrument was calibrated by using the heat of dilution of NaCl in water. […] The heat of ligand dilution was corrected by subtracting the average heat of injection after saturation. Origin software was used to fit and analyze the data.

[3] = molecular target: T3, PTP1B-CASA-mut2; experiment: isothermal titration calorimetry; format: binding; details: two independent experiments
Protocol: as §1

[4] = test system: TCPTP; design: method as in PMID 21962515; details: oxidized or reduced states; cited from earlier work
[5] = molecular target: T3, PTP1B-CASA-mut2; experiment: analytical size-exclusion chromatography; format: binding; details: excess or limiting molar ratios
Protocol: Recombinant PTP1B-CASA, PTP1B-CASA-mut2, and scFv45 were purified as described. Proteins were exchanged into freshly prepared 50 mM ammonium bicarbonate pH 8 (Fig. 2a; Supplementary Fig. 1) using 0.5 mL Zeba spin desalting columns 7K MWCO (Thermo Fisher Scientific) as per manufacturers protocol. Designated protein constructs or buffer equivalents were mixed at 1.1 or 1.4 molar excess (excess reciprocated for both PTP1B and scFv45) and incubated on ice 20 min prior to injection (20 µL injection loop; 4–10 µg total protein), separation, and detection on a Dionex Ultimate 3000 HPLC connected to an XBridge Protein BEH SEC 200 Å, 3.5 µm, 7.8 mm × 300 mm column (Waters) flowing 200 mM ammonium acetate pH 7.0 isocratically at 0.86 mL min^−1 and 25 °C, monitoring absorbance at λ 280 nm (Fig. 2a; Supplementary Fig. 1). Injections were performed intermittently with BEH200Å SEC Protein Standard Mix (amount corrected for 20 µL injection loop; Waters Corp.) to monitor peak resolution and retention time consistency among runs.

association with PTP1B-CASA-mut2 [5]	Molecule	IC50 ([1]; TCEP 5 mM, DiFMUP, read-out: IC50 against K36A/K41A PTP1B-OX mutant)	inhibition of PTP1B-OX relative to K36AK41A PTP1B-OX ([1]; reviewer's summary in peer review file)	Kd ([2]; read-out: binding constant for PTP1B-CASA by ITC)	Kd ([2]; independent experiments, read-out: affinity for PTP1B-CASA by ITC)	binding to PTP1B-CASA-mut2 by ITC [3]	binding to TCPTP [4]
	COc1ccc2c(c[n+](C)c3c4cc5c(cc4ccc23)OCO5)c1OC [chelerythrine]	75 µM	15 fold	3 µM	3.25 µM and 2.83 µM and 3.44 µM	No apparent binding; also recorded: did not detect saturable binding	
unable to associate	scFv45: recombinant conformation-sensor single-chain variable fragment antibody recognizing oxidized PTP1B (antibody, V domains shown) VH: TVTLDESGGGLQAPGGALSLVCKASGFTFSSYDMGWIRQAPGKGLEYVAGITDNGRYASYGSAVDGRATISRDNGQSSVRLQLNNLRAEDTGTYYCARDDGSGWTGNSIDAWGHGTEVIVSE VL: ALTQPSSVSANPGGTVKITCSGSSSAYGYGWYQQKSPGSAPVTVIYNNNKRPSNIPSRFSGSKSGSTGTLTITGVQAEDEAVYFCGSEDSSTDAIFGAGTTLTVL						does not bind
